Data set [1] concerns human complement (hC3a). Put plainly: Human complement (hC3a) in blood of chimeric mice by ELISA. The class given is in vivo, mouse. Conditions: administered vs non-administered chimeric mice. As to the method: Further, concentration of the human complement (hC3a) in blood of chimeric mice administered or non-administered with the complement inhibitor (Futhan®) was measured by ELISA method. In consequence, it was confirmed that hC3a concentration was lower in chimeric mice administered with the complement inhibitor compared with non-administered mice (FIG. 4).

The subject of data set [2] is human complement produced by human hepatocytes. The experiment in a line: Complement inhibitor given to human-hepatocyte chimeric mice: survival. The format is in vivo, mouse. The settings on record: 200 μl of 2 mg/ml, every 2 days to twice a day; human albumin in blood exceeded 3 mg/ml. Here is the method:
Also, human hepatocytes in the mouse liver tissue were stained immunologically using an anti-human complement C3 antibody, and presence of a complement C3 in human hepatocytes was confirmed. Therefore, 200 μl of a complement inhibitor (Futhan®) with concentration of 2 mg/ml was administered into the mouse with increased human albumin concentration. Administration frequency was started from once per 2 days. Change in body weight was checked every day, and administration frequency or dose was increased when decrease in body weight was observed (FIG. 3). As the results, the mice with human albumin concentration in blood over 2 mg/ml received the complement inhibitor (Futhan®) every 2 days, and those over 4 mg/ml received every day, and further, those over 6 mg/ml received twice a day (FIG. 3).

In data set [3] the test system is T1, CYP2C9.
T1 construct: to check activity of CYP2C9 in the microsomal fraction sampled from a mouse; from tissue; host or cells: liver microsomal fraction of human-hepatocyte-transplanted chimeric mice (uPA/SCID); donor (human) microsome as comparison
Put plainly: Diclofenac 4-hydroxylation activity in mouse liver microsomes. Conditions: liver microsomes of uPA(-/-)/SCID mouse. The class given is in vivo. As to the method: Further, to check activity of CYP2C9 in the microsomal fraction sampled from a mouse, diclofenac 4-hydroxylation activity was measured by adding diclofenac to the microsome. In consequence, diclofenac 4-hydroxylation activity was little detected in the uPA(−/−)/SCID mouse, and induction of activity by administration of a complement inhibitor was not observed also. […] In a chimeric mouse with 89% of replacement ratio, diclofenac 4-hydroxylation activity was confirmed higher than that of donor (human) microsome (FIG. 9).

In data set [4] the test system is human hepatocytes. The experiment in a line: Human albumin in blood of chimeric mice (ELISA). The format is in vivo. The settings on record: 60 mg/kg intraperitoneally before transplantation; compared with chimeric uPA-Tg(+/+)/SCID mouse. Here is the method: From 1 week after transplantation of human hepatocytes, 10 μl blood samples were taken from the tail of a mouse once or twice per a week, and concentration of human albumin was measured using Quantitative ELISA immunoassay (Bethyl Laboratories Inc.).
Then, the uPA-Tg(+/−)/SCID and the uPA-Tg(+/+)/SCID mice, which were inoculated with 60 mg/kg of retrorsine intraperitoneally, were transplanted with human hepatocytes similarly as in Example 1 to prepare chimeric mice.
As to one chimeric mouse prepared in Example 1, at 100 days after transplantation of human hepatocytes, an anti-mouse Fas antibody which leads mouse hepatocytes to apoptosis by reaction with a Fas antigen thereof was inoculated (0.2 μg/g body weight) into the abdominal cavity of said chimeric mouse twice at the interval of 1 week.

Data set [5] has as its system normalized mouse hepatocytes. The experiment in a line: Growth inhibition of normalized mouse hepatocytes in uPA-Tg/SCID mice. The format is in vivo. Conditions: 30 or 60 mg/kg intraperitoneally. As to the method:
Retrorsine was inoculated intraperitoneally in the amount of 30 or 60 mg/kg into a uPA-Tg(+/−)/SCID mouse and a uPA-Tg(+/+)/SCID mouse. As the result, number of colonies of normalized hepatocytes caused by deletion of introduced uPA gene (uPA-Tg(−/−)/SCID) was reduced in the uPA-Tg(+/−)/SCID mouse (FIG. 12).

T1 sequence (P11712 whole entry): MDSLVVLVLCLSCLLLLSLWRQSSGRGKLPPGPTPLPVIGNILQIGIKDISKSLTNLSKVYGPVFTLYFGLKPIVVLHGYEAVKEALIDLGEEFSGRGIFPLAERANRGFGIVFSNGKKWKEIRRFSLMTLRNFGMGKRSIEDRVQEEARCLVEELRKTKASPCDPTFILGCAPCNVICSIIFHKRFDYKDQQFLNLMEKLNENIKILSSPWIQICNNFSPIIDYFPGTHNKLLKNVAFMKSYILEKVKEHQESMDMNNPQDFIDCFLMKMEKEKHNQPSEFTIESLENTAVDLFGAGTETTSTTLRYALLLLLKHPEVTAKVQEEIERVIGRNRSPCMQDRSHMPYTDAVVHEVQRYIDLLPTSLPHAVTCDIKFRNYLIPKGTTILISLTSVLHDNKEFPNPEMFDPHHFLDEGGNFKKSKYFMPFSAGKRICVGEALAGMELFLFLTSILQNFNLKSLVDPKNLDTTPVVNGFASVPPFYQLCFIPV

Turning to `N=C(N)c1ccc2cc(OC(=O)c3ccc(N=C(N)N)cc3)ccc2c1` [Futhan, nafamostat mesilate], in data set [1], the “hC3a concentration in blood” value is “lower”. Also, the “survival of chimeric mouse” value in data set [2] is “could live for long period”. The “induction of diclofenac 4-hydroxylation activity” value in data set [3] is “not observed”.

Turning to retrorsine, the “human albumin concentration in blood of chimeric uPA-Tg(+/-)/SCID mouse” value in data set [4] is on record as “increased to the same level”. The “number of colonies of normalized hepatocytes caused by deletion of introduced uPA gene” value in data set [5] is on record as “reduced”.

The values above are taken from patent publication US7560279B2, “Method of proliferating human hepatocytes and method for obtaining human hepatocytes” (Hiroshima Industrial Promotion Organization, priority 2002, dated 2009).
